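Interpolation was linear, between the two tested concentrations surrounding the appropriate level; five concentrations were tested over 48 hours in 96-well plates. GI50: concentration for 50% inhibition of growth.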 The source made the active and inactive calls. Cut-off read from the data, not from the text of the source: active = GI50 up to about 1.1 µM and inactive = higher. Where a SMILES comes first, the peptide text is derived from it. The star is where a group is joined. Boc = CC(C)(C)OC(=O)*; OSu = O=C1CCC(=O)N1O*
Key:
Assay in all cases: NCI-60 cell line screen, 48 h
786-0 = system: 786-0
UO-31 = system: UO-31
IGROV-1 = system: IGROV-1
A549 = system: A549
M14 = system: M14
NCI/ADR-RES = system: NCI/ADR-RES
RPMI-8226 = system: RPMI-8226
SF-268 = system: SF-268
ACHN = system: ACHN
HL-60 = system: HL-60
SF-539 = system: SF-539
UACC-62 = system: UACC-62
NCI-H522 = system: NCI-H522
MDA-MB-231 = system: MDA-MB-231
KM12 = system: KM12
MDA-N = system: MDA-N
SNB-19 = system: SNB-19
RXF 393 = system: RXF 393
A498 = system: A498

SMILES	GI50 (786-0)	GI50 (UO-31)	GI50 (IGROV-1)	GI50 (A549)	GI50 (M14)	GI50 (NCI/ADR-RES)	GI50 (RPMI-8226)	GI50 (SF-268)	GI50 (ACHN)	GI50 (HL-60)	GI50 (SF-539)	GI50 (UACC-62)	GI50 (NCI-H522)	GI50 (MDA-MB-231)	GI50 (KM12)	GI50 (MDA-N)	GI50 (SNB-19)	GI50 (RXF 393)	GI50 (A498)
CCCCCC(=O)OCC(=O)[C@H]1[C@H](C)C[C@H]2[C@@H]3C[C@H](F)C4=C/C(=N/OC(=O)c5cccc6c(=O)c7ccccc7[nH]c56)C=C[C@]4(C)[C@H]3[C@@H](O)C[C@@]21C	48.3 µM (inactive)	16 µM (inactive)	25.2 µM (inactive)	20.6 µM (inactive)	28.6 µM (inactive)	11.2 µM (inactive)	< 0.01 µM (active)	53.8 µM (inactive)	19.9 µM (inactive)	> 100 µM (inactive)	23.9 µM (inactive)	16.7 µM (inactive)	14.3 µM (inactive)	40.8 µM (inactive)	10.7 µM (inactive)	28.3 µM (inactive)	37.3 µM (inactive)		
CC(C)CN1CN(c2ccccc2)C2(CCN(CC(C)(c3ccc(F)cc3)C3OCCO3)CC2)C1=O (stereo not drawn)	3.12 µM (inactive)	2.7 µM (inactive)		5.09 µM (inactive)	2.36 µM (inactive)	7.41 µM (inactive)	1.94 µM (inactive)	8.39 µM (inactive)	4.16 µM (inactive)	2.68 µM (inactive)	5.18 µM (inactive)	6.92 µM (inactive)	3.96 µM (inactive)		3.72 µM (inactive)	6.84 µM (inactive)	7.21 µM (inactive)	6.25 µM (inactive)	
CCCCCCCCCCCCCCCCCc1cccc(OCOCCOC)c1CO	> 100 µM (inactive)	> 100 µM (inactive)	> 100 µM (inactive)	> 100 µM (inactive)	> 100 µM (inactive)	> 100 µM (inactive)	> 100 µM (inactive)	> 100 µM (inactive)	> 100 µM (inactive)	> 100 µM (inactive)	> 100 µM (inactive)	> 100 µM (inactive)	> 100 µM (inactive)	> 100 µM (inactive)	> 100 µM (inactive)		> 100 µM (inactive)	> 100 µM (inactive)	> 100 µM (inactive)
Cc1ccc(-c2cc(=O)c3cc(C)c(C)c(C(=O)O)c3o2)cc1N	> 100 µM (inactive)	> 100 µM (inactive)	> 100 µM (inactive)	> 100 µM (inactive)	> 100 µM (inactive)		> 100 µM (inactive)	> 100 µM (inactive)	> 100 µM (inactive)		> 100 µM (inactive)	> 100 µM (inactive)	> 100 µM (inactive)		> 100 µM (inactive)		> 100 µM (inactive)	> 100 µM (inactive)	
c1ccc(-c2nnn3c2NC2=C(CCCC2)C3c2ccccc2)cc1 (stereo not drawn)	16.7 µM (inactive)	17.1 µM (inactive)	17.5 µM (inactive)	12.9 µM (inactive)	18.8 µM (inactive)	21.7 µM (inactive)	14.9 µM (inactive)	21.3 µM (inactive)	1.47 µM (inactive)	18.5 µM (inactive)	19.1 µM (inactive)	16.4 µM (inactive)	5.68 µM (inactive)	24.6 µM (inactive)	15.5 µM (inactive)	12.9 µM (inactive)	33.8 µM (inactive)	17.1 µM (inactive)	
COc1cc(C2c3[nH]c4ccc(F)cc4c3C[C@H]3COC(=O)N23)cc(OC)c1O (stereo partly drawn)	11.6 µM (inactive)	12.6 µM (inactive)	13.2 µM (inactive)	6.65 µM (inactive)	17 µM (inactive)	4.93 µM (inactive)	96.6 µM (inactive)	11.5 µM (inactive)	5.79 µM (inactive)	7.71 µM (inactive)	2.93 µM (inactive)	12.1 µM (inactive)	15 µM (inactive)	22.1 µM (inactive)	12.3 µM (inactive)		21.3 µM (inactive)	3.29 µM (inactive)	6.71 µM (inactive)
CC(=O)OC1CC(O)CC2=CCC3C4CCC(C(C)(O)C(O)CC5COC(=O)C5C)C4(C)CCC3C21C (stereo not drawn)	> 25 µM (inactive)	8.59 µM (inactive)	> 25 µM (inactive)	> 25 µM (inactive)	> 25 µM (inactive)		14.6 µM (inactive)	> 25 µM (inactive)	> 25 µM (inactive)	4.39 µM (inactive)	> 25 µM (inactive)	21.4 µM (inactive)	12.8 µM (inactive)	13 µM (inactive)	> 25 µM (inactive)	> 25 µM (inactive)	> 25 µM (inactive)	> 25 µM (inactive)	> 25 µM (inactive)
Cc1c2c(C#N)nccc2c(C)c2c1c1ccccc1n2Cc1ccccc1	> 100 µM (inactive)	> 100 µM (inactive)	> 100 µM (inactive)	> 100 µM (inactive)	> 100 µM (inactive)	> 100 µM (inactive)	> 100 µM (inactive)	> 100 µM (inactive)	> 100 µM (inactive)	> 100 µM (inactive)	> 100 µM (inactive)	> 100 µM (inactive)		> 100 µM (inactive)	> 100 µM (inactive)	> 100 µM (inactive)	> 100 µM (inactive)	> 100 µM (inactive)	
[N-]=[N+]=CC(=O)OC(CCl)CCl	> 100 µM (inactive)	> 100 µM (inactive)	> 100 µM (inactive)				> 100 µM (inactive)	> 100 µM (inactive)	> 100 µM (inactive)	> 100 µM (inactive)		> 100 µM (inactive)	> 100 µM (inactive)	> 100 µM (inactive)	> 100 µM (inactive)	> 100 µM (inactive)	> 100 µM (inactive)	> 100 µM (inactive)	> 100 µM (inactive)
c1ccc2c(c1)CCCc1cc3ccccc3nc1-2	> 100 µM (inactive)	> 100 µM (inactive)	> 100 µM (inactive)	> 100 µM (inactive)	> 100 µM (inactive)		31 µM (inactive)	92.5 µM (inactive)	> 100 µM (inactive)		> 100 µM (inactive)	> 100 µM (inactive)	82.4 µM (inactive)		> 100 µM (inactive)		> 100 µM (inactive)		79.4 µM (inactive)
CS(=O)(=O)Nc1ccc(Nc2ccnc3ccc4[nH]ccc4c23)cc1	9.64 µM (inactive)	29.7 µM (inactive)	20 µM (inactive)	19.5 µM (inactive)	16.1 µM (inactive)	> 100 µM (inactive)	21 µM (inactive)	5.13 µM (inactive)	21.5 µM (inactive)	21.4 µM (inactive)		14.3 µM (inactive)	6.4 µM (inactive)	8.93 µM (inactive)	11.6 µM (inactive)		6.52 µM (inactive)	14 µM (inactive)	18.5 µM (inactive)
Cc1c2ccccc2c(C)n2c1nc1cc3ccccc3cc12	0.955 µM (active)		1.04 µM (active)	1.86 µM (inactive)	1.38 µM (inactive)	0.897 µM (active)	2.2 µM (inactive)	1.34 µM (inactive)	0.783 µM (active)	2.5 µM (inactive)	1.34 µM (inactive)	1.49 µM (inactive)	1.74 µM (inactive)	1.36 µM (inactive)	1.32 µM (inactive)	1.47 µM (inactive)	1.54 µM (inactive)		
CC(C)(C)OC(=O)NC(Cc1ccc(O)cc1)C(=O)NC(CCCCN)C(=O)NC(Cc1ccc(O)cc1)C(=O)NC(CCCCN)C(=O)ON1C(=O)CCC1=O (stereo not drawn) (Boc-YKYK-OSu; configuration not given here)	> 100 µM (inactive)	> 100 µM (inactive)	85.3 µM (inactive)	> 100 µM (inactive)	> 100 µM (inactive)		> 100 µM (inactive)		> 100 µM (inactive)	> 100 µM (inactive)		> 100 µM (inactive)		> 100 µM (inactive)	> 100 µM (inactive)	> 100 µM (inactive)	> 100 µM (inactive)	> 100 µM (inactive)	> 100 µM (inactive)
O=c1c2cc([N+](=O)[O-])cnc2sn1-c1ccc(Br)cc1	30.5 µM (inactive)	51.3 µM (inactive)	81.7 µM (inactive)	42.3 µM (inactive)	53 µM (inactive)	33.9 µM (inactive)	26.6 µM (inactive)	27.5 µM (inactive)	> 100 µM (inactive)	34.5 µM (inactive)	27.3 µM (inactive)	82.4 µM (inactive)	5.5 µM (inactive)	28.3 µM (inactive)	40.8 µM (inactive)	> 100 µM (inactive)	38.8 µM (inactive)		
CN(C(=O)OC(C)(C)C)[C@H]1CCCC[C@H]1N1CCCC1	> 100 µM (inactive)	> 100 µM (inactive)	> 100 µM (inactive)	> 100 µM (inactive)	> 100 µM (inactive)	> 100 µM (inactive)	> 100 µM (inactive)	> 100 µM (inactive)	> 100 µM (inactive)	5.81 µM (inactive)	> 100 µM (inactive)	> 100 µM (inactive)	> 100 µM (inactive)	> 100 µM (inactive)	> 100 µM (inactive)		> 100 µM (inactive)		> 100 µM (inactive)
CCCC(=O)n1[nH]c(=O)n(-c2ccc(Cl)cc2)c1=O	> 100 µM (inactive)	> 100 µM (inactive)	> 100 µM (inactive)	> 100 µM (inactive)	> 100 µM (inactive)	> 100 µM (inactive)	> 100 µM (inactive)	> 100 µM (inactive)	> 100 µM (inactive)	> 100 µM (inactive)		> 100 µM (inactive)		> 100 µM (inactive)	> 100 µM (inactive)	> 100 µM (inactive)	> 100 µM (inactive)	> 100 µM (inactive)	

From ChEMBL document CHEMBL1201862, “PubChem BioAssay data set” (2004)
